Assay results published in patent publication US20070274928A1, “Novel Cyclic Oxygenated Compounds Having Cooling, Fragrance, and Flavor Properties, and Uses Thereof” (priority 2003, published 2007).
Entries after “also recorded” stand apart in the source; their conditions may differ.

Key:
Type in all cases: in vivo, human
[1] = Organoleptic evaluation of cooling sensory effect of purified compounds; settings: pure / purified compound
mouth = test: Taste evaluation of aqueous solutions by mouth rinse (cooling sensory effect); settings: 5 ppm solution in purified water, 10 ml rinsed in mouth for 10 sec
Description: A 5 ppm solution of 98% pure ketone (10) in purified water was prepared. 10 ml of the solution was tasted by rinsing it in the mouth for 10 sec.
A series of solutions of a mixture of compounds (7) and (8) (approximately 60:40 ratio) were prepared in purified water for subsequent evaluation of cooling sensory effects and taste properties at different concentrations. The solutions were tasted by taking 10 ml of each sample in the mouth, rinsing the mouth for 30 seconds, and discarding the solution by spitting. The cooling sensory effects were recorded as extreme (5), strong (4), moderate (3), weak (2), or none (1), and the ranks were noted over a period of time of 4 hours. Only one sample was tasted per day. All samples were kept in a refrigerator until the taste evaluation and were brought to room temperature before tasting.

nasal cavity = test: Olfactory evaluation of neat sample, cooling sensory effect on smelling
Description: 10 ml of 20% NaOH in water were added to the 1 ml of ethanolic solution of 120 mg of the oil resulting from the Grignard reaction, and the whole was stirred at room temperature for 1 hour.
An analytically pure sample of a lactone having formula (129) was obtained by subjecting 30 mg of the fraction 2A sample to column chromatography on silica gel using hexane:ethyl acetate 8:1 as an eluent.

tongue = test: Application of 5% solution to the tongue; settings: 0.1 ml of a 5% solution applied to the tongue
Description: 3.66 grams of compound (5), 10 ml of water, 5 ml of ethanol, and 1.70 g of sodium bicarbonate were stirred together at room temperature until evolution of carbon dioxide ceased (approximately 30 min). The whole was evaporated under reduced pressure at 85° C. until a constant weight was reached. The resulting transparent solid (4.4 g) was sodium ketocampholenate monohydrate.

Compound	cooling sensory effect [1]	also measured
CC(C)=CC1C(=O)C=C(C)C1(C)C (stereo not drawn) [(10)]	completely devoid of a cooling sensory effect	cooling sensory effect (mouth): no discernible cooling sensory effect
CC1CCC(C(C)CO)C(=O)C1 (stereo not drawn) [(52)]	potent cooling properties	–
CC1CC2(C)OC(=O)CC2C1(C)C (stereo not drawn) [(129)]	–	cooling sensory effect upon smelling the sample (nasal cavity): did not exhibit any significant ability to impart the cooling sensation
CC1(C)CC2C(=O)CC(C)(O1)C2(C)C (stereo not drawn) [(147)]	no significant cooling sensory effect	–
CC1=C[C@]2(C)OC(=O)CC2C1(C)C (stereo partly drawn) [compound (6)]	lacks the cooling sensory effect	–
CC1=CC2(O)OC(C)(C)CC2C1(C)C (stereo not drawn) [compound (7)]	powerful cooling effect; also recorded: very powerful cooling sensory effect	–
CC1=CC(=O)C(CC(C)(C)O)C1(C)C (stereo not drawn) [compound (8)]	relatively weak cooling effect	–
CC1=CC2(C)OC(C)(C)CC2C1(C)C (stereo not drawn) [compound (11)]	devoid of cooling sensory properties	–
CC1CC2(O)OC(C)(C)CC2C1(C)C (stereo not drawn) [compound (15)]	moderate to strong cooling sensory effect	–
CC1CC(=O)C(CC(C)(C)O)C1(C)C (stereo not drawn) [compound (16)]	weak cooling sensory effect	–
sodium ketocampholenate monohydrate	–	duration of tingling-tangy sensation (tongue): about 10 min
